One compound from the NIST ThermoML archive (doi:10.1021/je800300x) can be followed below.

± gives the expanded uncertainty stated by the source.

The conditions of data set [1]: Crystal; DTA.
Data set [2] in a line: Molar enthalpy of transition or fusion. To be noted: Crystal; DSC.

Consider `c1ccc2c(c1)-c1ccccc1-2` [biphenylene], for which the Normal melting temperature in data set [1] amounted to 112.2 ± 1.1 °C. Further, the “Molar enthalpy of transition or fusion” value in data set [2] came out at 5.4 ± 0.359 kcal/mol.
